Data from patent publication US10420810B2, “Traditional Chinese medicine composition for the treatment of diabetic retinopathy” (priority 2015, dated 2019).

What was measured:
Type in all cases: in vivo, rat
[1] = test system: iris vessels of diabetic rats; assay: Diameter of iris vessels in STZ diabetic rats; conditions: 300 days, result in words
From the text: (§1) The modeling was the same as that of Experiment 2. After successful modeling, diabetic rats were randomized into the model group (20 rats), experiment group (30 rats, given the TCM composition prepared according to Experiment 1), control group (Doxium group, 20 rats) and normal group (12 rats). The experiment lasted 300 days. 1.2 Observation Methods and Outcome Measures: The iris blood flow velocity, diameter of iris vessels, density of iris microvessels, endothelial structure of iris microvessels, permeability of iris microvessels and iris unit area blood perfusion volume were observed by the iris vascular perfusion scan and iris fluorescein angiography.

retinal capillaries = assay: Microscopic observation of retinal vascular digest preparation, STZ diabetic rats (Experiment 3); conditions: 9 months, PAS staining, result in words
Experimental: (§2) 48 SPF-grade SD rats, male, 6 weeks old, (220±20) g in weight, were purchased from Huafukang Biotechnology Co., Ltd. After one-week's adaptive feeding, the rats were randomized into the modeling group (36 rats) and normal group (12 rats). The rats were fasted for 12 hours before modeling and given 1% STZ solution according to the body weight of 60 mg/kg via one intraperitoneal injection to induce experiment diabetic rat models. Rats in the normal group were injected with normal saline of the same volume. Blood glucose was monitored 72 hours later, blood was collected via caudal vein, and the modeling was deemed as successful when the blood glucose was ≥16.7 mmol/L for 3 consecutive days; after successful modeling, rats were randomized into the model group (12 rats), TCM composition experiment group (abbreviated as the experiment group, containing 12 rats) and Doxium group (abbreviated as the control group, containing 12 rats). Rats in the experiment group and control group were dosed on the next day after successful modeling. The administered dose of the experiment group was 10 ml/(kg·d) and that of the control group was 250 mg/(kg·d), with the Doxium powders dissolved in 2 mL distilled water. […] In the experiment period, all the rats were given food and drinking water at regular times each day; the changes in the body weight and blood glucose of rats were monitored monthly. […]

VEGF = assay: Immunohistochemistry of retinal paraffin sections: whole-layer retinal VEGF expression (Experiment 3); conditions: STZ diabetic rats, 9 months, x ± s
Experimental: as §2

retina [2] = assay: HE staining of retinal paraffin sections, STZ diabetic rats (Experiment 3); conditions: 9 months, result in words
Experimental: as §2

[3] = test system: iris vessels of diabetic rats; assay: Iris blood flow velocity in STZ diabetic rats; conditions: x ± s
From the text: as §1

retina [4] = assay: Retinal electron microscopy, STZ diabetic rats (Experiment 3); conditions: 9 months, result in words
Experimental: as §2

[5] = test system: iris vessels of diabetic rats; assay: Iris unit area blood perfusion volume (laser Doppler scanning) in STZ diabetic rats; conditions: x ± s
From the text: as §1

## O=S(=O)(O)c1cc(O)ccc1O [Doxium]
[1]
  Diameter of iris vessels compared to the model group: no statistically significant difference between the Doxium group and model group
Retinal capillaries
  Microscopic observation of retinal vascular digest preparation: retinal microvascular changes were significantly prevented or delayed
VEGF
  Whole-layer Retinal VEGF Expression (Gray-scale values), Mean Optical Density Value: 0.43 ± 0.09
Retina [2]
  Light microscopic observation of HE-stained retinal paraffin sections: the retinal net structure was loose, internal and external granular layers were arranged in a disordered manner, capillaries were dilated, and interstitial edema can be noted
[3]; 300 days
  Blood Flow Velocity Index, Post-treatment: 3.25 ± 0.81 min
[3]; baseline
  Blood Flow Velocity Index, Pre-treatment: 1.07 ± 0.07 min
Retina [4]
  Retinal ultrastructure observation (electron microscopy): the vascular walls of retinal capillaries were still regular and smooth, basement membranes were thickened
[5]; 300 days
  Iris Unit Area Blood Perfusion Volume, Post-treatment: 133.71 ± 6.89
[5]; baseline
  Iris Unit Area Blood Perfusion Volume, Pre-treatment: 607.45 ± 194.19
